What was measured:
Assay in all cases: Cysteine liganding, probe competition
Assay type in all cases: binding
[1] = molecular target: T1, CKB Creatine kinase B-type (Homo sapiens, UniProt P12277)
T1 construct: 200 μL of lysate containing 5 mg/ml proteome was treated with 2 μL of 100× compound stock; endogenous in cells
How it was run: (§1)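 Read-out is loss of desthiobiotin iodoacetamide labelling at cysteines, measured on streptavidin-enriched tryptic peptides. Compound preincubation ran 1 hr at 25° C in PBS lysate holding 5 mg/ml proteome before the probe was added.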

[2] = molecular target: T2, MAPK10 Mitogen-activated protein kinase 10 (Homo sapiens, UniProt P53779); details: for 100 Max / 100 ave / 500 ave / 500 Max: uniprot P53779; for 500 Max: in % (unit assumed)
T2 construct: Cells were resuspended in cold PBS on ice and sonicated with a probe sonicator to achieve lysis; endogenous in cells
How it was run: as §1

[3] = molecular target: T3, TBC1D15 TBC1 domain family member 15 (Homo sapiens, UniProt Q8TC07)
T3 construct: Cells were resuspended in cold PBS on ice and sonicated with a probe sonicator to achieve lysis; endogenous in cells
T3 sequence (Q8TC07 1-691): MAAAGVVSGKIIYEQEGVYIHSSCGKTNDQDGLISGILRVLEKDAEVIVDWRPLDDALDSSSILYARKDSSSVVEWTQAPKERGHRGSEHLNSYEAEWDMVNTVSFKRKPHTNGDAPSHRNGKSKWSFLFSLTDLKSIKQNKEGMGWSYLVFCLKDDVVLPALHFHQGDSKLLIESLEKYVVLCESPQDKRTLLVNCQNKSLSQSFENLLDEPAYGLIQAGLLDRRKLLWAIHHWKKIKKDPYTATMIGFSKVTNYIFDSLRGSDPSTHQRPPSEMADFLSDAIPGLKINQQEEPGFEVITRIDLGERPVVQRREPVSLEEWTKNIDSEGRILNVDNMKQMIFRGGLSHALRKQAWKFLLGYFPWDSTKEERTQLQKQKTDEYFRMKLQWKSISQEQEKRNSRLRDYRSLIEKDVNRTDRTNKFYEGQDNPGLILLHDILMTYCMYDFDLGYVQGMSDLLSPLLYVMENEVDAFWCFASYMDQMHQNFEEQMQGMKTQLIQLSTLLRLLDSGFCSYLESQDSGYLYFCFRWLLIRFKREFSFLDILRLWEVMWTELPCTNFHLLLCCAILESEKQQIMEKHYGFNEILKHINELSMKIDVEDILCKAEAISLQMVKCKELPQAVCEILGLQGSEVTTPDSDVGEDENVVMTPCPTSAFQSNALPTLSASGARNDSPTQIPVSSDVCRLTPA
How it was run: as §1

T2 sequence (P53779 whole entry): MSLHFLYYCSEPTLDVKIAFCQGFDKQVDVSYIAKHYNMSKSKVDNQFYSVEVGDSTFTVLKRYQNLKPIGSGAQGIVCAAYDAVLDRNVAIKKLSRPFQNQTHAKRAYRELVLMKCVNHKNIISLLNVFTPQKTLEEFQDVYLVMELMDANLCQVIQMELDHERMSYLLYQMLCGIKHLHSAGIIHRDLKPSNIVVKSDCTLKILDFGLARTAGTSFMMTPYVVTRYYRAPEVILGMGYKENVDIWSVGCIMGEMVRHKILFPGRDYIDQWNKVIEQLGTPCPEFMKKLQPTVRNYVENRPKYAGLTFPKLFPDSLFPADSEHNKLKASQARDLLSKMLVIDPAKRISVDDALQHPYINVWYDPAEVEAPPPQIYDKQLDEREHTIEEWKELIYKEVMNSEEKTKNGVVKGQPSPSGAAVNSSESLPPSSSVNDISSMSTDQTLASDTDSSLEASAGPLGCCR
T1 sequence (P12277 whole entry): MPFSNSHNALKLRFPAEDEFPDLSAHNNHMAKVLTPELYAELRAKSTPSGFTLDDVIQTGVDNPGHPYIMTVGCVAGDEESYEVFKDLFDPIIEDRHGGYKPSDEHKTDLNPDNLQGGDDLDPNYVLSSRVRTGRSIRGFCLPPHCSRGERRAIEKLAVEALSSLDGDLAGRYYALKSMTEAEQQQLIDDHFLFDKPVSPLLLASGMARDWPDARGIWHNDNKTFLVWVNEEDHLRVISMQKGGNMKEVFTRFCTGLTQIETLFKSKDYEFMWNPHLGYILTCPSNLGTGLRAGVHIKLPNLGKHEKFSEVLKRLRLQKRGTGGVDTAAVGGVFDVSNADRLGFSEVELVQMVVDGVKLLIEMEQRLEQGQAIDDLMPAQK

| Structure (SMILES) | Liganded ([1]; CKB Res# 283, uniprot P12277) | Liganded ([2]; MAPK10 Res# 283, uniprot P53779) | 100 Max [2] | 100 ave [2] | 500 ave [2] | 500 Max [2] | Liganded ([3]; TBC1D15 Res# 24, uniprot Q8TC07) | 100 Max ([1]; uniprot P12277) | 100 ave ([1]; uniprot P12277) | 500 ave ([1]; uniprot P12277) | 500 Max ([1]; uniprot P12277, in % (unit assumed)) | 100 Max ([3]; uniprot Q8TC07) | 100 ave ([3]; uniprot Q8TC07) | 500 Max ([3]; uniprot Q8TC07) | 500 ave ([3]; uniprot Q8TC07) |
| --- | --- | --- | --- | --- | --- | --- | --- | --- | --- | --- | --- | --- | --- | --- | --- |
| COc1ccc2c(c1)CCCN2C(=O)CCl [KB02] | YES | YES | 44.42 | 26.11 | 76.89 | 78.63 | YES | – | – | – | – | – | – | – | – |
| O=C(CCl)Nc1cc(C(F)(F)F)cc(C(F)(F)F)c1 [KBO3] | – | – | 17.22 | 12.33 | 40.875 | 44.06 | – | 23.24 | 15.155 | 71.73 | 71.73 | 7.83 | 0.88 | 47.51 | 47.51 |
